These results are taken from patent US20250230477A1, “A PROCESS FOR THE PREPARATION OF TETRAHYDROANTHRACENES FROM STREPTOMYCES SPP. AND ANTICANCER ACTIVITY THEREOF” (Council of Scientific and Industrial Research, priority 2021, published 2025).

In general, IC50 refers to the concentration that inhibits the measured activity by half. Low readings indicate greater potency, high ones weaker potency.

For series [1], the system named is Bacillus cereus. Briefly: MIC, microtiter broth dilution. The series is classed as cell-based. The following applies: dilutions 2-500 μg/ml, overnight 37° C. As to the method:
(§1) The minimum inhibitory concentrations (MIC) of purified compound showing significant zones of inhibition in the preliminary antimicrobial assay using agar well diffusion method were evaluated. MIC assay was carried out by a microtiter broth dilution method with some modifications. Stock solution of each pathogen was prepared in normal saline solution i.e. 0.85% NaCl (w/v) at a concentration of 10^8 cells/ml and finally diluted with respective growth media to give approximately 10^5 CFU/ml for all organisms. Different dilutions of compound was prepared (2-500 μg/ml) by serial dilutions. 100 μl of each concentration (2-500 μg/ml) of the compound was loaded onto each well and was mixed with 100 μl of diluted pathogens containing 10^5 CFU/ml. […] The microtitre plates were then incubated overnight at 37° C. for bacterial pathogens and 28° C. for fungal pathogens and were analysed after incubation.
(Broth dilution looks for growth in wells or tubes with falling amounts of substance.)

Series [2] has as its system Bacillus subtilis. Briefly: MIC, microtiter broth dilution. The following applies: dilutions 2-500 μg/ml, overnight 37° C. The series is classed as cell-based. As to the method:
as §1

Series [3] concerns Micrococcus luteus. Briefly: MIC, microtiter broth dilution. The class given is cell-based. The settings on record: dilutions 2-500 μg/ml, overnight 37° C. As to the method: as §1
The test system of series [4] is Staphylococcus aureus. As to the kind of experiment: MIC, microtiter broth dilution. The class given is cell-based. The following applies: dilutions 2-500 μg/ml, overnight 37° C. As to the method:
as §1

Series [5] can be described thus: MTT cytotoxicity. The series is classed as cell-based. The following applies: human, FR2 cells, 100 μM concentration range. As to the method:
(§2) 5×10^3 cells were seeded/well in a 96 well plate and treated with Compounds (1-3) for 48 hours with 100 μM concentration range to a panel of cancer cell lines. After 44 hour MTT with final concentration of 0.5 mg/ml were added to cells and incubated for 4 hour at 37° C. until formazon crystals are formed. MTT was removed and formazon crystals were lysed by DMSO for 30 minutes at 37° C., the absorbance was measured at 570 nm and the IC50 values were calculated using graph pad prism.

Series [6] concerns A549. As to the kind of experiment: MTT cytotoxicity. The following applies: Homo sapiens, 48 hours, 100 μM concentration range. The series is classed as cell-based. As to the method: as §2
Series [7] relates to HCT-116. Briefly: MTT cytotoxicity. The class given is cell-based. The following applies: Homo sapiens; HCT-116, MTT, 48 hours, 100 μM concentration range. As to the method: as §2
Series [8] relates to HT-29. Briefly: MTT cytotoxicity. The series is classed as cell-based. The settings on record: Homo sapiens; HT-29, MTT, 48 hours, 100 μM concentration range. As to the method:
as §2

The subject of series [9] is MCF-7. As to the kind of experiment: MTT cytotoxicity. The class given is cell-based. The settings on record: Homo sapiens, MCF7; MCF-7, MTT, 48 hours, 100 μM concentration range. As to the method:
as §2

The subject of series [10] is MDA-MB-231. As to the kind of experiment: MTT cytotoxicity. The series is classed as cell-based. The following applies: Homo sapiens; MDA-MB-231, MTT, 48 hours, 100 μM concentration range. As to the method:
as §2

For series [11], the system named is MiaPaca-2. Briefly: MTT cytotoxicity. The settings on record: Homo sapiens, MIA PaCa-2; MiaPaca-2, MTT, 48 hours, 100 μM concentration range. The series is classed as cell-based. As to the method: as §2
For series [12], the system named is PC3. Briefly: MTT cytotoxicity. The series is classed as cell-based. The following applies: Homo sapiens, PC-3, 48 hours, 100 μM concentration range. As to the method: as §2
Series [13] relates to Panc-1. Briefly: MTT cytotoxicity. The class given is cell-based. The settings on record: Homo sapiens; Panc-1, MTT, 48 hours, 100 μM concentration range. As to the method: as §2
In series [14] the test system is HCT-116. Briefly: Colony formation assay. The series is classed as cell-based. The settings on record: HCT-116, concentrations nearby the IC50, 5 days. As to the method: (§3) Colony formation assay was performed to further certify the antiproliferative properties of setomimycin in four different cancer cell lines viz. HT-29, MiaPaca-2, HCT-116 and MCF-7. Cells were seeded onto 6 well plates at seeding density 1×10^3 fells/well and treated with increasing concentration of setomimycin nearby the IC50 values for 5 days. Upon termination the cells were stained with 0.1% crystal violet for 20-30 minutes and washed with dH2O thoroughly. The images were taken from plates with NIKON camera (D3100). Average colonies (n=3) were quantified from different fields. Bar graphs represent the number of colonies (n=3, error bars indicate ±SD).

For series [15], the system named is HT-29. As to the kind of experiment: Colony formation assay. The class given is cell-based. The settings on record: HT-29, concentrations nearby the IC50, 5 days. As to the method: as §3
The subject of series [16] is MCF-7. As to the kind of experiment: Colony formation assay. The series is classed as cell-based. The settings on record: MCF-7, concentrations nearby the IC50, 5 days. As to the method: as §3
Series [17] deals with MiaPaca-2. As to the kind of experiment: Colony formation assay. The series is classed as cell-based, human. The settings on record: MiaPaca-2, concentrations nearby the IC50, 5 days. As to the method:
as §3

Series [18] concerns HCT-116. Briefly: Transwell invasion assay. The class given is cell-based. The following applies: HCT-116, 48 hours, increasing concentration. As to the method:
(§4) The above results depict significant antiproliferative effects of setomimycin in different cell lines near IC50 values. Transwell invasion assay was performed to check the anti-invasive properties of setomimycin. […] (A-B) 1.2×10^6 HCT-116 and MCF-7 cells were seeded in the upper chamber of inserts in serum free medium and treated with indicated concentration of setomimycin for 48 hours. (After 48 hours the invaded cells from lower insert were fixed with ice cold methanol and stained with 0.1% crystal violet for 20-30 minutes. After staining the inserts were washed with dH2O thoroughly and cells from three different fields in each treated condition were counted and photographed under an inverted microscope (20× magnifications). (C-D) Bar graph representing the number of invaded cells (n=3, error bars indicate ±SD).

In series [19] the test system is MCF-7. As to the kind of experiment: Transwell invasion assay. The class given is cell-based. The settings on record: MCF-7, 48 hours, increasing concentration. As to the method:
as §4

Series [20] relates to HCT-116. As to the kind of experiment: Scratch assay (migration). The class given is cell-based. The settings on record: HCT-116, concentrations within the range of IC50. As to the method: (§5) Scratch assay was performed in the panel of cancer cell lines with varying degree of invasive and migratory capabilities as shown in FIG. 4. Our results unveiled that setomimycin inhibited the migratory potential of all the cell lines treated with different concentration of setomimycin within the range of their IC50 values. […] 5×10^5 cells were seeded onto 6 well plate and grown upto more than 90% confluency. After the proper attachment of cells wounds were created with the help of a 20-200 μL sterile pipette tip. Subsequently the cells were treated with indicated concentration of setomimycin and vehicle (DMSO). The images were taken under inverted microscope at 20× magnification.

For series [21], the system named is HT-29. As to the kind of experiment: Scratch assay (migration). The settings on record: HT-29, concentrations within the range of IC50. The series is classed as cell-based. As to the method: as §5
The test system of series [22] is MCF-7. As to the kind of experiment: Scratch assay (migration). The series is classed as cell-based. The settings on record: MCF-7, concentrations within the range of IC50. As to the method: as §5
Series [23] concerns MiaPaca-2. As to the kind of experiment: Scratch assay (migration). The series is classed as cell-based, human. The settings on record: MiaPaca-2, concentrations within the range of IC50. As to the method:
as §5

Series [24] has as its system BCL-2. As to the kind of experiment: Western blotting. The class given is cell-based. The settings on record: HCT-116 and MCF-7 cells, 48 h. As to the method:
(§6) FIG. 5 Illustrates effect of setomimycin (Compound-3) pro-proliferative and anti-apoptotic protein targets in cancer cells: (A-B) Immunoblot analysis of ERK, p-MEK, Par-4, BCL-2 and β-actin in HCT-116 and MCF-7 cells treated with setomimycin for 48 h. (C-D) Densitometry analysis showing relative protein expression for the western blots presented Strong active potential of setomimycin against tumor cell proliferation and migration at nearby concentration of IC50 values was depicted by MTT data. Further, molecular docking studies predicted the strong affinity of setomimycin targeting MEK pathway. ERK and MEK are the major signaling pathways regulating cancer cell proliferation, differentiation and apoptosis. Therefore, Western blotting was carried out to check the effects of Setomimycin on ERK and MEK proteins.

Series [25] concerns ERK. Briefly: Western blotting. The class given is cell-based. The settings on record: HCT-116 and MCF-7 cells, 48 h. As to the method: as §6
(Immunoblotting shows a protein as a band on a membrane.)

Series [26] deals with Par-4. Briefly: Western blotting. The class given is cell-based. The following applies: HCT-116 and MCF-7 cells, 48 h. As to the method: as §6
Series [27] has as its system Phospho MEK. Briefly: Western blotting. The series is classed as cell-based. The following applies: HCT-116 and MCF-7 cells, 48 h, increasing concentration. As to the method: as §6
Series [28] deals with Gram positive bacteria i.e. S. aureus, B. subtilis, B. cereus, and M. smegmatis. The following applies: literature 1978; cited from earlier work.
Series [29] relates to Sarcoma-180. The settings on record: Sarcoma-180 mouse solid tumor model, 200 mg/kg per day for seven days; cited from earlier work.

For the compound `CC(=O)[C@H]1c2cc3cccc(O)c3c(O)c2C(=O)C[C@]1(C)O` [Compound-1], the “Minimum Inhibitory Concentration” value worked out at 12 in [1], 12 in [2], 6 in series [3] and 25 in series [4]. Besides, it took 48.7 µM to reach half-maximal inhibition in [5] (IC50 at 48 h). Also, the IC50 was found to be 38.9 µM in series [6]; 10.4 µM in series [7]; 8.64 µM in series [8]; 9.56 µM in series [9]; 13.6 µM in series [10]; 12.7 µM in [11]. For the same compound, the figures for the IC50 in [12] and in series [13] were 14.7 µM and 15.6 µM, respectively.

Consider `CC(=O)[C@H]1c2c(c(O)c3c(O)cccc3c2-c2c3c(c(O)c4c(O)cccc24)C(=O)C[C@](C)(O)[C@H]3C(C)=O)C(=O)C[C@]1(C)O` [Compound-2], for which the “Minimum Inhibitory Concentration” value is listed as 6 in [1], 6 in [2], 4 in series [3] and 12 in series [4]. Moreover, in series [5], half-maximal inhibition (IC50 at 48 h) was put at 62.3 µM. For the same compound, the IC50 was 38.7 µM in [6]; 18.9 µM in [7]; 15.5 µM in [8]; 11.2 µM in [9]; 12.5 µM in series [10]; 8.31 µM in series [11]. The IC50 in series [12] turned out to be 17.5 µM; in series [13], 21.3 µM.

As for `CC(=O)[C@@H]1C(C)=CC(=O)c2c1c(-c1c3c(c(O)c4c(O)cccc14)C(=O)C[C@](C)(O)[C@H]3C(C)=O)c1cccc(O)c1c2O` [Compound-3, Setomimycin], the “Minimum Inhibitory Concentration” value was determined as 4 in [1], 16 in [2], 8 in [3] and 8 in [4]. Inhibition in [5] was half-maximal at 53.3 µM (IC50 at 48 h). The IC50 in series [6] is 11.5 µM; in series [7], 5.3 µM; in series [8] it was 4.2 µM; in series [9] it was 6.9 µM; in series [10], 7.5 µM; in series [11], 4.57 µM. Besides, the figures for the IC50 in [12] and in series [13] were 7.02 µM and 48 µM, respectively. In addition, the “Antiproliferative effect, colony formation” value in series [14], in [15], in series [16] and in series [17] was “promising results near the IC50 values” each time. Moreover, the “Invasion of cells, transwell” value in series [18] and in series [19] was “significantly inhibited” throughout. Besides, the “Cell migration, scratch assay” value in series [20], in series [21], in [22] and in series [23] was “inhibited the cell migration” throughout. Further, in [24], the “BCL-2 (antiapoptotic protein) expression, Western blot” value was “downregulated”. For the same compound, in [25], the “ERK protein expression, Western blot” value is “downregulation”. The “Par-4 (pro-apoptotic protein) expression, Western blot” value in series [26] is recorded as “upregulated”. Further, the “Phospho MEK expression, Western blot” value in series [27] is “down regulated”. Further, the “Activity against Gram positive bacteria” value in series [28] is recorded as “active”. Also, the Tumor growth entry in [29] is “reduce tumor growth”.
